6 compounds from patent publication US7169932B2 (priority 2001, dated 2007) can be followed below.

One series has as its target T1, HIV-1 protease (Q7S) (Human immunodeficiency virus type 1 group M subtype B, UniProt P04585, Q495S).
T1 construct: made in house
The series can be described thus: HIV-1 Protease RET Assay. It is filed as biochemical. The settings on record: Ave. Ki (nM), RET assay, Q7S enzyme, pH 4.8, 37 C. The method, boiled down: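 Ki values came from a RET assay on refolded Q7S protease (2 nM active dimer) cleaving RE(EDANS)SQNYPIVQK(DABCYL)R at 5 μM, read at ex 340/em 490 nm. Reactions ran 12 min at 37 C in 0.1M sodium acetate pH 4.8, 1M NaCl, 5 mM DTT, 10% DMSO; curves were fit with the Morrison tight-binding equation.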

The next series concerns HIV-1. Put plainly: Cytopathic Effect (CPE) Inhibition Assay (XTT dye reduction). It is filed as cell-based. As to conditions: Human immunodeficiency virus 1, 144 h, read-out: Ave CPE EC50 (mM), protection of infected cells, six days, XTT. The method, boiled down: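 CEM-SS or MT-2 cells infected with HIV-1 RF or NL4–3 (moi 0.025–0.819), 2×10^4 cells/well, incubated six days with half-log compound dilutions. Viability read by XTT formazan at 450 nm; EC50 is the concentration restoring 50% of uninfected-control formazan, CC50 from uninfected treated cells, therapeutic index CC50/EC50.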
In general terms: Damage to the host cells serves as the signal in cytopathic effect assays.

A further series relates to 46I, 84V, 90M virus. The series can be described thus: Phenotypic susceptibility assay at Virologic, Inc. The format is cell-based, HIV-1. As to conditions: Human immunodeficiency virus 1. The procedure: Compounds were tested in phenotypic susceptibility assays at Virologic, Inc., (See Petropoulos C. J., Parkin N. T., Limoli K. L., Lie Y. S., Wrin T., Huang W., Tian H., Smith D., Winslow G. A., Capon D J, Whitcomb J M. 2000, “A novel phenotypic drug susceptibility assay for human immunodeficiency virus type 1,” Antimicrob Agents Chemother 44(4):920–928) or using the assay described here. MT-2 cells were infected with either HIV-1 NL4–3 or HIV-1 NL4–3(184V/L90M) and incubated in the presence of serial 0.5 log dilutions of test compounds. Three days later, culture supernatants were collected and virus production, as determined by p24 ELISA, was assayed. Percent inhibition was calculated as p24 concentration in compound-treated samples as compared to infected, compound-free controls. Inhibition of viral replication is determined by measuring reduction in HIV p24 present in the culture supernatant, using a Beckman-Coulter p24 HIV-1 Ag EIA kit and following the supplied protocol. Absorbance is read on a MRX microplate reader (Dynex Technologies). The EC50 was calculated as the concentration of compound that effected a decrease in the p24 production by infected, compound-treated cells to 50% of that produced by infected, compound-free cells.

Some results are limits rather than exact numbers.

The Ki is the dissociation constant of the complex between target and ligand, obtained from inhibition or displacement. The low end stands for a stronger hold on the target, the high end for a looser hold on the target. Broadly, the EC50 is the midpoint of the concentration-response curve. One may read the IC50 as the concentration that gives 50% inhibition. A higher IC50 goes with lower potency. The compound `Cc1c(O)cccc1C(=O)N[C@@H](Cc1ccccc1)[C@H](O)C(=O)N1CSC(C)(C)[C@H]1C(=O)NCC#N` [Example A30, (R)-3-((2S,3S)-2-Hydroxy-3-{[1-(3-hydroxy-2-methyl-phenyl)-methanoyl]-amino}-4-phenyl-butanoyl)-5,5-dimethyl-thiazolidine-4-carboxylic acid cyanomethylamide] came in with a Ki at HIV-1 protease (Q7S) of 1.1 nM. The EC50 with HIV-1 was found to be 507 nM. In addition, inhibition in the series on 46I, 84V, 90M virus was half-maximal at 829 nM (IC50).
As a reminder, the melting point is the temperature, or range, at which the solid turns liquid. `Cc1c(O)cccc1C(=O)N[C@@H](Cc1ccccc1)[C@H](O)C(=O)N1CSC(C)(C)[C@H]1C(=O)N[C@@H](C)c1ccccc1` [Example A20, (R)-3-((2S,3S)-2-Hydroxy-3-{[1-(3-hydroxy-2-methyl-phenyl)-methanoyl]-amino}-4-phenyl-butanoyl)-5,5-dimethyl-thiazolidine-4-carboxylic acid ((S)-1-phenyl-ethyl)-amide] returned a melting point of 114 to 115 °C. The compound further had a Ki on HIV-1 protease (Q7S) of 0.13 nM. Moreover, the EC50 in the series on HIV-1 came to 37 nM. This compound also gave an IC50 with 46I, 84V, 90M virus of 147 nM.
For `Cc1nc(C)c(C(=O)N[C@@H](Cc2ccccc2)[C@H](O)C(=O)N2CSC(C)(C)[C@H]2C(=O)NCc2ccccc2C)s1` [Example B11, 2,4-Dimethyl-thiazole-5-carboxylic acid {1-benzyl-3-[5,5-dimethyl-4-(2-methyl-benzylcarbamoyl)-thiazolidin-3-yl]-2-hydroxy-3-oxo-propyl}-amide], the Ki at HIV-1 protease (Q7S) stood at 1.2 nM. Also, the EC50 in the series with HIV-1 is 1180 nM. The compound also registered an IC50 with 46I, 84V, 90M virus of 1720 nM.
As for `CCOc1cccc(CNC(=O)[C@H]2N(C(=O)[C@@H](O)[C@H](Cc3ccccc3)NC(=O)c3cccc(O)c3C)CSC2(C)C)c1` [Example A26, (R)-3-((2S,3S)-2-Hydroxy-3-{[1-(3-hydroxy-2-methyl-phenyl)-methanoyl]-amino}-4-phenyl-butanoyl)-5,5-dimethyl-thiazolidine-4-carboxylic acid 3-ethoxy-benzylamide], the melting point lay within 105 to 107 °C. For the same compound, at HIV-1 protease (Q7S), the Ki came out at 0.38 nM. The EC50 in the series on HIV-1 is 119 nM. This compound also gave an IC50 with 46I, 84V, 90M virus of 321 nM.
For `C=CCNC(=O)[C@H]1N(C(=O)[C@@H](O)[C@H](Cc2ccccc2)NC(=O)c2cccc(O)c2C)CSC1(C)C` [Example A14, (R)-3-((2S,3S)-2-Hydroxy-3-{[1-(3-hydroxy-2-methyl-phenyl)-methanoyl]-amino}-4-phenyl-butanoyl)-5,5-dimethyl-thiazolidine-4-carboxylic acid allylamide], the Ki at HIV-1 protease (Q7S) was 0.44 nM. Besides, in the series with HIV-1, the EC50 is 52 nM. The compound also came in with an IC50 in the series with 46I, 84V, 90M virus of 71 nM.
`C#CCNC(=O)[C@H]1N(C(=O)[C@@H](O)[C@H](Cc2ccccc2)NC(=O)c2cccc(O)c2C)CSC1(C)C` [Example A17, 3-(2-Hydroxy-3-{[1-(3-hydroxy-2-methyl-phenyl)-methanoyl]-amino}-4-phenyl-butanoyl)-5,5-dimethyl-thiazolidine-4-carboxylic acid prop-2-ynylamide] came in with a Ki at HIV-1 protease (Q7S) of less than 0.1 nM. In addition, in the series with HIV-1, the concentration for a half-maximal effect (EC50) was found to be 45 nM. In the series on 46I, 84V, 90M virus, this compound registered an IC50 of 102 nM.
